Data on three compounds can be found in PubChem BioAssay AID679 (PCMD, 2007).

Usually IC50 stands for the concentration that inhibits the measured activity by half.

Activity calls are given as the source filed them. How the calls were made is not given here. Bounds are passed on as bounds.

The target of this assay is Coagulation factor XI (Homo sapiens) (UniProt P03951). In words: human FXIa inhibitor potency, dose response, biochemical (AID 679). The settings on record: purified human factor XIa enzymatic activity assay.
Coagulation factor XI (Homo sapiens), sequence (P03951 19-387 limits assumed): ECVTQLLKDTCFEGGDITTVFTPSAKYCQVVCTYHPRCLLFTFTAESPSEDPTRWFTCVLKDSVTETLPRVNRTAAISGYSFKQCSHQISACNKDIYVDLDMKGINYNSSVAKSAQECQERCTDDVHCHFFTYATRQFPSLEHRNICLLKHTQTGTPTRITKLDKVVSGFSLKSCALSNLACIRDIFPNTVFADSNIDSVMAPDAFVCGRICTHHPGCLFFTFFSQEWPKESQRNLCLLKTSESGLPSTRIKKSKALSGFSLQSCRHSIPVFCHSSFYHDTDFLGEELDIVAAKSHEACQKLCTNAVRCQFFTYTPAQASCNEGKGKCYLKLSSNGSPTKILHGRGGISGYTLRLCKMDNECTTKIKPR
Coagulation factor XI (Homo sapiens), sequence (P03951 388-625 limits assumed): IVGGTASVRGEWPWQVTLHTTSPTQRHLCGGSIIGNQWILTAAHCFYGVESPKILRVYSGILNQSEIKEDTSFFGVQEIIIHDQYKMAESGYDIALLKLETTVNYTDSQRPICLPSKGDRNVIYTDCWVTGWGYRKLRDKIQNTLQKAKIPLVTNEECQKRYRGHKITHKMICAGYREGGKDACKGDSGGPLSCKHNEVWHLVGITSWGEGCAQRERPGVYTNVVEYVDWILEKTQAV

With `COC(=O)c1ccc(NC(=O)CC2C(=O)N(c3ccc(C)cc3)C(=O)N2CC(C)C)cc1` (stereo not drawn), the IC50 was > 50 µM (inactive).

With `CC1=C(C(=O)OC(C)C)C(c2coc3ccccc3c2=O)C2=C(CCCC2=O)N1` (stereo not drawn), the IC50 is > 50 µM (inactive).

For the compound `N#Cc1c(N)nc2c3c(sc(=N)c2c1N)NC(=O)CC3c1ccccc1Cl` (stereo not drawn), the IC50 was > 50 µM (inactive).
